pEC50, pIC50: −log10 of the molar value.
What was measured:
[1] = molecular target: T1, human recombinant CBL-b (human Biotin CBL-b recombinant protein a.a. 39-426) (Homo sapiens, UniProt Q13191); assay: Biochemical assay for CBL-b inhibition (ligand displacement TR-FRET); assay type: binding; conditions: 50 nM CBL-b, 0.3 μM Bodipy FL-Probe, read-out: IC50 (CBL-b inhibition, group)
T1 construct: human Biotin CBL-b recombinant protein a.a; 39-426; Biotin (biotinylated); made in house
Outline: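 Biotinylated CBL-b (a.a. 39-426, 50 nM final) pre-incubated with compound 60 min at RT in HEPES/NaCl/Triton/BSA/TCEP buffer, then Bodipy FL probe (0.3 μM final) 60 min, then terbium-streptavidin 60 min. TR-FRET read at 665/615 nm; IC50 and % max inhibition from sigmoidal fits.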

[2] = tested on: NFAT signaling pathway in Jurkat NFAT reporter cells; assay: Jurkat NFAT reporter assay; assay type: cell-based; conditions: Homo sapiens, 30 min with compound, then soluble anti-human CD3/CD28 antibody for 6 hours, luciferase readout, read-out: EC50 (Group)
Outline: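 Jurkat cells bearing an NFAT-RE-driven luciferase reporter (1×10^5 per well) preincubated with Cbl-b inhibitor for 30 min, then stimulated 6 h with soluble anti-CD3/CD28. Luminescence read with Bio-Glo; values are fold change over anti-CD3/CD28-stimulated cells without inhibitor.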

T1 sequence (Q13191 39-426): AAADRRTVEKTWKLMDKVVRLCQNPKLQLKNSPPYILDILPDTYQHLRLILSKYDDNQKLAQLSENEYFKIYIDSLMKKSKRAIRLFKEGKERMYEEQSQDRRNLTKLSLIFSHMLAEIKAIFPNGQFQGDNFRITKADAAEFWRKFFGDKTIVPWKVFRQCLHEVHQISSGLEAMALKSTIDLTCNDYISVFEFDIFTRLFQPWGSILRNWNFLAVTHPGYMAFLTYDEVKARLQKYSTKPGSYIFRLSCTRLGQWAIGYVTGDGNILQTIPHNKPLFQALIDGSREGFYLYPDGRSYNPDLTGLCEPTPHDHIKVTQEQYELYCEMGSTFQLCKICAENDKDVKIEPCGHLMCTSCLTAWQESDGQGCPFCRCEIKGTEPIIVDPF

| pIC50 [1] | pEC50 [2] | SMILES |
| --- | --- | --- |
| 6.52 to 7.10 | 6.00 to 6.52 | Cn1cnnc1CC1(c2ccc3c(c2)C(=O)N(c2cc(CN4CCC5(CC5)C4)cc(Cl)n2)C3)COC1 [Compound 62, 2-(4-((5-Azaspiro[2.4]heptan-5-yl)methyl)-6-chloropyridin-2-yl)-6-(3-((4-methyl-4H-1,2,4-triazol-3-yl)methyl)oxetan-3-yl)isoindolin-1-one] |
| > 7.10 | > 6.52 | Cn1cnnc1CC1(c2ccc3c(c2)C(=O)N(c2cc(CN4CCCCC4)cc(Cl)n2)C3)COC1 [Compound 64, 2-(6-Chloro-4-(piperidin-1-ylmethyl)pyridin-2-yl)-6-(3-((4-methyl-4H-1,2,4-triazol-3-yl)methyl)oxetan-3-yl)isoindolin-1-one] |
| 6.52 to 7.10 | 6.00 to 6.52 | C[C@@H]1C[C@H](C)CN(Cc2cc(N3Cc4ccc(C5(Cc6nncn6C)COC5)cc4C3=O)cc(C(F)(F)F)c2)C1 [Compound 65, 2-(3-(((3S,5R)-3,5-Dimethylpiperidin-1-yl)methyl)-5-(trifluoromethyl)phenyl)-6-(3-((4-methyl-4H-1,2,4-triazol-3-yl)methyl)oxetan-3-yl)isoindolin-1-one] |
| > 7.10 | > 6.52 | Cn1cnnc1CC1(c2ccc3c(c2)C(=O)N(c2cc(CNCCC(F)(F)F)cc(Cl)n2)C3)COC1 [Compound 66, 2-(6-Chloro-4-(((3,3,3-trifluoropropyl)amino)methyl)pyridin-2-yl)-6-(3-((4-methyl-4H-1,2,4-triazol-3-yl)methyl)oxetan-3-yl)isoindolin-1-one] |
| 6.52 to 7.10 | 6.00 to 6.52 | C[C@H]1CCN(Cc2cc(Cl)nc(N3Cc4ccc(C5(Cc6nncn6C)COC5)cc4C3=O)c2)C1 [Compound 67, (S)-2-(6-Chloro-4-((3-methylpyrrolidin-1-yl)methyl)pyridin-2-yl)-6-(3-((4-methyl-4H-1,2,4-triazol-3-yl)methyl)oxetan-3-yl)isoindolin-1-one] |
| 6.52 to 7.10 | 6.00 to 6.52 | C[C@@H]1CCN(Cc2cc(Cl)nc(N3Cc4ccc(C5(Cc6nncn6C)COC5)cc4C3=O)c2)C1 [Compound 68, (R)-2-(6-Chloro-4-((3-methylpyrrolidin-1-yl)methyl)pyridin-2-yl)-6-(3-((4-methyl-4H-1,2,4-triazol-3-yl)methyl)oxetan-3-yl)isoindolin-1-one] |
| 5.30 to 6.52 | 5.00 to 6.00 | Cn1cnnc1CC1(c2ccc3c(c2)C(=O)N(c2cc(CN4CC5CC5C4)cc(C(F)(F)F)n2)C3)COC1 (centres unmarked) [Compound 71, 2-(4-((3-Azabicyclo[3.1.0]hexan-3-yl)methyl)-6-(trifluoromethyl)pyridin-2-yl)-6-(3-((4-methyl-4H-1,2,4-triazol-3-yl)methyl)oxetan-3-yl)isoindolin-1-one] |
| 6.52 to 7.10 | 5.00 to 6.00 | C[C@H]1CCCN(Cc2cc(C3CC3)nc(N3Cc4ccc(C5(Cc6nncn6C)COC5)cc4C3=O)c2)C1 [Compound 73, (S)-2-(6-Cyclopropyl-4-((3-methylpiperidin-1-yl)methyl)pyridin-2-yl)-6-(3-((4-methyl-4H-1,2,4-triazol-3-yl)methyl)oxetan-3-yl)isoindolin-1-one] |
| 6.52 to 7.10 | 5.00 to 6.00 | Cn1cnnc1CC1(c2ccc3c(c2)C(=O)N(c2cc(CNC4CC(F)(F)C4)cc(C(F)(F)F)n2)C3)COC1 [Compound 74, 2-(4-(((3,3-Difluorocyclobutyl)amino)methyl)-6-(trifluoromethyl)pyridin-2-yl)-6-(3-((4-methyl-4H-1,2,4-triazol-3-yl)methyl)oxetan-3-yl)isoindolin-1-one] |
| > 7.10 | > 6.52 | C[C@@H]1C[C@H](C)CN(Cc2cc(N3Cc4ccc(C5(Cc6nncn6C)CCC5)cc4C3=O)nc(C(F)(F)F)c2)C1 [Compound 82, 2-(4-(((3S,5R)-3,5-Dimethylpiperidin-1-yl)methyl)-6-(trifluoromethyl)pyridin-2-yl)-6-(1-((4-methyl-4H-1,2,4-triazol-3-yl)methyl)cyclobutyl)isoindolin-1-one] |
| > 7.10 | > 6.52 | CC(Cc1nncn1C)c1ccc2c(c1)C(=O)N(c1cc(CN3CCC[C@H](C)C3)cc(Cl)n1)C2 (stereo partly drawn) [Compound 83, 2-(6-Chloro-4-(((S)-3-methylpiperidin-1-yl)methyl)pyridin-2-yl)-6-(1-(4-methyl-4H-1,2,4-triazol-3-yl)propan-2-yl)isoindolin-1-one] |
| 6.52 to 7.10 | 6.00 to 6.52 | CC(Cc1nncn1C)c1ccc2c(c1)C(=O)N(c1cc(CN3C[C@H](C)C[C@H](C)C3)cc(Cl)n1)C2 (stereo partly drawn) [Compound 84, 2-(6-Chloro-4-(((3S,5R)-3,5-dimethylpiperidin-1-yl)methyl)pyridin-2-yl)-6-(1-(4-methyl-4H-1,2,4-triazol-3-yl)propan-2-yl)isoindolin-1-one] |
| > 7.10 | > 6.52 | C[C@H]1CCCN(Cc2cc(Cl)nc(N3Cc4ccc(C5(Cc6nncn6C)CC(C#N)C5)cc4C3=O)c2)C1 (some centres unmarked) [Compound 85] |
| 5.30 to 6.52 | 6.00 to 6.52 | Cn1cnnc1CC1(c2ccc3c(c2)C(=O)N(c2cc(CNC4(C)CCC4)cc(C(F)(F)F)n2)C3)COC1 [Compound 88, 6-(3-((4-Methyl-4H-1,2,4-triazol-3-yl)methyl)oxetan-3-yl)-2-(4-(((1-methyl-cyclobutyl)amino)methyl)-6-(trifluoromethyl)pyridin-2-yl)isoindolin-1-one] |
| > 7.10 | > 6.52 | C[C@H]1CCCN(Cc2cc(Cl)nc(N3Cc4ccc(C5(Cc6nncn6C)CCC5)cc4C3=O)c2)C1 [Compound 89, (S)-2-(6-Chloro-4-((3-methylpiperidin-1-yl)methyl)pyridin-2-yl)-6-(1-((4-methyl-4H-1,2,4-triazol-3-yl)methyl)cyclobutyl)isoindolin-1-one] |
| 5.30 to 6.52 | 5.00 to 6.00 | Cn1cnnc1CC1(c2ccc3c(c2)C(=O)N(c2cc(CN4CCCc5c4cnn5C)cc(C(F)(F)F)n2)C3)COC1 [Compound 92, 2-(4-((1-Methyl-1,5,6,7-tetrahydro-4H-pyrazolo[4,3-b]pyridin-4-yl)methyl)-6-(trifluoromethyl)pyridin-2-yl)-6-(3-((4-methyl-4H-1,2,4-triazol-3-yl)methyl)oxetan-3-yl)isoindolin-1-one] |
| > 7.10 | 6.00 to 6.52 | C[C@H]1CCCN(Cc2cc(N3Cc4ccc(C5(Cc6nncn6C)COC5)cc4C3=O)cc3occc23)C1 [Compound 94, (S)-6-(3-((4-Methyl-4H-1,2,4-triazol-3-yl)methyl)oxetan-3-yl)-2-(4-((3-methyl-piperidin-1-yl)methyl)benzofuran-6-yl)isoindolin-1-one] |
| > 7.10 | > 6.52 | Cc1cc(CNCC2CC2)cc(N2Cc3ccc(-c4ccc(Cl)cc4-c4nncn4C)cc3C2=O)n1 [Compound 101, 6-(4-Chloro-2-(4-methyl-4H-1,2,4-triazol-3-yl)phenyl)-2-(4-(((cyclopropylmethyl)amino)methyl)-6-methylpyridin-2-yl)isoindolin-1-one] |
| > 7.10 | > 6.52 | Cn1cnnc1-c1cc(Cl)ccc1-c1ccc2c(c1)C(=O)N(c1cc(CNCC3CC3)cc(Cl)n1)C2 [Compound 102, 6-(4-Chloro-2-(4-methyl-4H-1,2,4-triazol-3-yl)phenyl)-2-(6-chloro-4-(((cyclopropylmethyl)amino)methyl)pyridin-2-yl)isoindolin-1-one] |
| > 7.10 | > 6.52 | Cc1cc(C(C)NCC2CC2)cc(N2Cc3ccc(-c4ccc(Cl)cc4-c4nncn4C)cc3C2=O)n1 (centres unmarked) [Compound 103, 6-(4-Chloro-2-(4-methyl-4H-1,2,4-triazol-3-yl)phenyl)-2-(4-(1-((cyclopropylmethyl)amino)ethyl)-6-methylpyridin-2-yl)isoindolin-1-one] |
| 6.52 to 7.10 | 6.00 to 6.52 | Cn1cnnc1-c1cc(Cl)ccc1-c1ccc2c(c1)C(=O)N(c1cc(CNC3CCCC3)cc(Cl)n1)C2 [Compound 106, 6-(4-Chloro-2-(4-methyl-4H-1,2,4-triazol-3-yl)phenyl)-2-(6-chloro-4-((cyclo-pentylamino)methyl)pyridin-2-yl)isoindolin-1-one] |
| > 7.10 | > 6.52 | CC(NCC1CCC1)c1cc(Cl)nc(N2Cc3ccc(-c4ccc(Cl)cc4-c4nncn4C)cc3C2=O)c1 (centres unmarked) [Compound 107, 6-(4-Chloro-2-(4-methyl-4H-1,2,4-triazol-3-yl)phenyl)-2-(6-chloro-4-(1-((cyclo-butylmethyl)amino)ethyl)pyridin-2-yl)isoindolin-1-one] |
| > 7.10 | > 6.52 | C[C@H]1CCCN(Cc2cc(Cl)nc(N3Cc4ccc(-c5ccc(C#N)cc5-c5nncn5C)cc4C3=O)c2)C1 [Compound 112, (S)-4-(2-(6-Chloro-4-((3-methylpiperidin-1-yl)methyl)pyridin-2-yl)-3-oxoiso-indolin-5-yl)-3-(4-methyl-4H-1,2,4-triazol-3-yl)benzonitrile] |
| > 7.10 | > 6.52 | C[C@H]1CCCN(Cc2cc(Cl)nc(N3Cc4ccc(-c5ccc(Cl)cc5-c5nncn5C)cc4C3=O)c2)C1 [Compound 113, (S)-6-(4-Chloro-2-(4-methyl-4H-1,2,4-triazol-3-yl)phenyl)-2-(6-chloro-4-((3-methylpiperidin-1-yl)methyl)pyridin-2-yl)isoindolin-1-one] |
| > 7.10 | 5.00 to 6.00 | Cn1cnnc1-c1ccccc1-c1ccc2c(c1)C(=O)N(c1cc(CNCCC(F)(F)F)cc(Cl)n1)C2 [Compound 116, 2-(6-Chloro-4-(((3,3,3-trifluoropropyl)amino)methyl)pyridin-2-yl)-6-(2-(4-methyl-4H-1,2,4-triazol-3-yl)phenyl)isoindolin-1-one] |

From patent US20260226073A1 (AURIGENE ONCOLOGY LIMITED, priority 2023, published 2026)
